For 1 molecule, TGI results are on record in PubChem BioAssay (NCI).

Experiment in all cases: inhibition of tumour cell growth, NCI panel, 48 h
In experiment [1] the test system is PC-3 prostate.
The test system of experiment [2] is HT29 colon.
For experiment [3], the system named is CCRF-CEM leukemia.
Experiment [4] deals with ACHN renal.
Experiment [5] has as its system A549 NSCLC.
For experiment [6], the system named is MDA-MB-231 breast.
The test system of experiment [7] is SF-539 CNS.
The subject of experiment [8] is OVCAR-8 ovarian.
Experiment [9] has as its system NCI-H522 lung.
Experiment [10] deals with K-562 leukemia.

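How tested: cells in 96-well plates exposed to compound for 48 hours at five concentrations. TGI: concentration producing complete growth inhibition.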

Regarding `CCCCNC1CCC2(SCCS2)c2[nH]c3ccccc3c21` (stereo not given), the TGI in experiment [1] is greater than 67.3 µM; in [2], greater than 100 µM; in [3] it was greater than 59.7 µM; in experiment [4], greater than 100 µM; in experiment [5] it was greater than 100 µM; in experiment [6] it was greater than 62.6 µM. In addition, the TGI in experiment [7] was determined as 31.6 µM; in [8] it was 66.3 µM; in experiment [9], 23 µM; in [10] it was 55.1 µM.
